In ChEMBL document CHEMBL1201862, “PubChem BioAssay data set” (2004):
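Compound exposure: 48 hours, 5 concentrations, 96-well plates. GI50: concentration for 50% inhibition of growth.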 Active and inactive are the calls of the source. Cut-off read from the data, not from the text of the source: active = GI50 up to about 1.1 µM and inactive = higher.

Key:
Assay in all cases: growth of human tumour cells (NCI), 48 h
[1] = test system: SNB-19
[2] = test system: OVCAR-8
[3] = test system: ACHN
[4] = test system: IGROV-1
[5] = test system: UACC-62
[6] = test system: TK-10
[7] = test system: SR
[8] = test system: NCI-H226
[9] = test system: M14
[10] = test system: NCI-H23
[11] = test system: U-251
[12] = test system: SN12C
[13] = test system: SF-295
[14] = test system: HCT-15
[15] = test system: MCF7
[16] = test system: NCI-H460
[17] = test system: HOP-92
[18] = test system: COLO 205
[19] = test system: A498
[20] = test system: NCI-H522

Row | Structure (SMILES) | GI50 [1] | GI50 [2] | GI50 [3] | GI50 [4] | GI50 [5] | GI50 [6] | GI50 [7] | GI50 [8] | GI50 [9] | GI50 [10] | GI50 [11] | GI50 [12] | GI50 [13] | GI50 [14] | GI50 [15] | GI50 [16] | GI50 [17] | GI50 [18] | GI50 [19] | GI50 [20]
1 | Cc1c2c3cc(O)ccc3nc-2n(C)c2ccccc12 | 1.83 µM (inactive) | 0.755 µM (active) | 0.479 µM (active) | 2.17 µM (inactive) | 1.39 µM (inactive) | 2.98 µM (inactive) | 0.782 µM (active) | 2.86 µM (inactive) | 1.58 µM (inactive) | 2.24 µM (inactive) | 0.838 µM (active) | 0.875 µM (active) | 1.59 µM (inactive) | 1.81 µM | 2.21 µM (inactive) | 0.434 µM (active) | 1.93 µM (inactive) |  |  | 
2 | CN(C)CCNC(=O)c1cccc2c1Oc1c(cccc1[N+](=O)[O-])O2 |  | 1.71 µM (inactive) | 0.335 µM (active) | 1.56 µM (inactive) | 0.419 µM (active) | 1.69 µM (inactive) | 0.462 µM (active) | 0.288 µM (active) | 2.64 µM (inactive) | 1.44 µM (inactive) | 0.787 µM (active) | 0.74 µM (active) | 0.548 µM (active) | 0.544 µM | 0.957 µM (active) | 0.413 µM (active) |  | 1.87 µM (inactive) | 1.37 µM (inactive) | 0.975 µM (active)
3 | CC(c1ccccc1)n1cncc1C(=O)NN1CCN(C)CC1 (stereo not drawn) | > 10 µM (inactive) | > 10 µM (inactive) | > 10 µM (inactive) | > 10 µM (inactive) | > 10 µM (inactive) | > 10 µM (inactive) | > 10 µM (inactive) | 3.81 µM (inactive) | > 10 µM (inactive) | > 10 µM (inactive) | > 10 µM (inactive) | > 10 µM (inactive) | > 10 µM (inactive) | > 10 µM | > 10 µM (inactive) | > 10 µM (inactive) |  | > 10 µM (inactive) | > 10 µM (inactive) | > 10 µM (inactive)
4 | COc1ccc(/C=C/c2nsc(/C=C/c3ccc(OC)cc3)n2)cc1 | > 100 µM (inactive) | > 100 µM (inactive) | > 100 µM (inactive) | > 100 µM (inactive) |  | > 100 µM (inactive) | 27.3 µM (inactive) | > 100 µM (inactive) | > 100 µM (inactive) |  | 44.7 µM (inactive) |  | > 100 µM (inactive) | 52.1 µM | > 100 µM (inactive) | 24.9 µM (inactive) | > 100 µM (inactive) | > 100 µM (inactive) | > 100 µM (inactive) | 39.6 µM (inactive)
5 | Cn1c2ccccc2c(=O)c2cccc(C(=O)NC(CCC(N)=O)C(=O)O)c21 (stereo not drawn) | > 100 µM (inactive) | > 100 µM (inactive) | > 100 µM (inactive) | > 100 µM (inactive) | > 100 µM (inactive) | > 100 µM (inactive) | 62.1 µM (inactive) | > 100 µM (inactive) | > 100 µM (inactive) | > 100 µM (inactive) | > 100 µM (inactive) | > 100 µM (inactive) | > 100 µM (inactive) | > 100 µM | > 100 µM (inactive) | > 100 µM (inactive) |  | > 100 µM (inactive) | > 100 µM (inactive) | 
6 | O=C(O)CNc1ncc2c(n1)-c1ccccc1OC2 | > 100 µM (inactive) | > 100 µM (inactive) | > 100 µM (inactive) | > 100 µM (inactive) | > 100 µM (inactive) | > 100 µM (inactive) | > 100 µM (inactive) |  | > 100 µM (inactive) | > 100 µM (inactive) | > 100 µM (inactive) | > 100 µM (inactive) | > 100 µM (inactive) | > 100 µM | > 100 µM (inactive) | > 100 µM (inactive) | > 100 µM (inactive) | > 100 µM (inactive) |  | 
7 | COc1cc(-c2nc3ccccn3c2/N=C/c2cc(Br)cc(Br)c2O)ccc1O | 26.1 µM (inactive) | 23.4 µM (inactive) | 48.8 µM (inactive) | 22.9 µM (inactive) | 27 µM (inactive) | 23.9 µM (inactive) | 25.9 µM (inactive) | 24.1 µM (inactive) | 18.2 µM (inactive) | 24.3 µM (inactive) | 15.6 µM (inactive) | 19.5 µM (inactive) | 20.7 µM (inactive) | 19 µM | 22.3 µM (inactive) | 35.1 µM (inactive) | 23.4 µM (inactive) | 26.9 µM (inactive) |  | 23.2 µM (inactive)
8 | COc1cc(/C=C/C(=O)c2ccc(NS(=O)(=O)c3cc([N+](=O)[O-])ccc3C)cc2)cc(OC)c1OC | 3.85 µM (inactive) | 2.49 µM (inactive) | 4.38 µM (inactive) | 3.88 µM (inactive) |  | 3.96 µM (inactive) | 1.82 µM (inactive) | 2.97 µM (inactive) | 2.99 µM (inactive) | 3.05 µM (inactive) | 3.37 µM (inactive) | 1.87 µM (inactive) | 4.61 µM (inactive) | 3.04 µM | 2.77 µM (inactive) |  | 2.98 µM (inactive) | 4.26 µM (inactive) |  | 
9 | CC(=O)CCC(=O)CC(O)(C(F)(F)F)C(F)(F)F | 15.9 µM (inactive) | 19.6 µM (inactive) | 24.8 µM (inactive) | 15.4 µM (inactive) | 16.8 µM (inactive) | 22.6 µM (inactive) | 16.4 µM (inactive) | 11.6 µM (inactive) | 19.9 µM (inactive) | 21.2 µM (inactive) | 17.2 µM (inactive) | 20.9 µM (inactive) | 12.4 µM (inactive) | 20.1 µM | 18.8 µM (inactive) | 20.7 µM (inactive) | 13.6 µM (inactive) | 17.9 µM (inactive) | 5.01 µM (inactive) | 
10 | O=C1CC2CCC(C1)[S+]2[O-] (stereo not drawn) | > 100 µM (inactive) | > 100 µM (inactive) |  | > 100 µM (inactive) | > 100 µM (inactive) | > 100 µM (inactive) | > 100 µM (inactive) | > 100 µM (inactive) | > 100 µM (inactive) | > 100 µM (inactive) | > 100 µM (inactive) | > 100 µM (inactive) | 61.4 µM (inactive) | > 100 µM | > 100 µM (inactive) | > 100 µM (inactive) | > 100 µM (inactive) | > 100 µM (inactive) |  | > 100 µM (inactive)
11 | CO[C@H]1C[C@@H]2CC[C@@H](C)[C@@](O)(O2)C(=O)C(=O)N2CCCC[C@H]2C(=O)O[C@H]([C@H](C)C[C@@H]2CC[C@@H](OC(=O)C(C)(CO)CO)[C@H](OC)C2)CC(=O)[C@H](C)/C=C(\C)[C@@H](O)[C@@H](OC)C(=O)[C@H](C)C[C@H](C)/C=C/C=C/C=C/1C [TEMSIROLIMUS] | 0.0258 µM (active) | 0.00388 µM (active) | 0.00723 µM (active) |  | 0.0141 µM (active) | 0.00262 µM (active) | 0.000361 µM (active) | 0.0116 µM (active) | 0.0417 µM (active) | 0.00501 µM (active) |  | 0.00607 µM (active) | 0.000557 µM (active) | 0.0849 µM | 0.00538 µM (active) | 0.0678 µM (active) | 0.00254 µM (active) | 3.98 µM (inactive) | 0.0363 µM (active) | 0.0802 µM (active)
12 | Cc1cc(C23OC4COC(C)(C)OC4C2OC(C)(C)O3)nc2ccccc12 (stereo not drawn) | > 100 µM (inactive) | > 100 µM (inactive) | > 100 µM (inactive) | 31.3 µM (inactive) | > 100 µM (inactive) | > 100 µM (inactive) | 72.8 µM (inactive) | > 100 µM (inactive) | > 100 µM (inactive) | > 100 µM (inactive) | > 100 µM (inactive) | > 100 µM (inactive) | > 100 µM (inactive) | > 100 µM | > 100 µM (inactive) | > 100 µM (inactive) | > 100 µM (inactive) | > 100 µM (inactive) |  | > 100 µM (inactive)
13 | Nc1nc(Nc2ccccc2)c2[nH]cnc2n1 | > 100 µM (inactive) | > 100 µM (inactive) | 41.9 µM (inactive) | 32 µM (inactive) | 33.3 µM (inactive) | 46.9 µM (inactive) |  | 40.6 µM (inactive) | > 100 µM (inactive) | > 100 µM (inactive) | > 100 µM (inactive) | > 100 µM (inactive) | > 100 µM (inactive) | 52 µM | > 100 µM (inactive) |  | 32.2 µM (inactive) | 89.9 µM (inactive) | 20.3 µM (inactive) | 65.5 µM (inactive)
14 | COc1cccc(-c2cc(O)c3cc(OC)ccc3n2)c1 | 0.39 µM (active) | 0.344 µM (active) | 1.74 µM (inactive) | 0.483 µM (active) | 0.182 µM (active) | 0.5 µM (active) | 0.0815 µM (active) | 0.396 µM (active) | 0.235 µM (active) | 0.32 µM (active) | 0.305 µM (active) | 0.685 µM (active) | 0.18 µM (active) | 0.366 µM | 0.364 µM (active) | 0.365 µM (active) | 0.488 µM (active) | 0.201 µM (active) | 0.0158 µM (active) | 
15 | Cc1cc2c(cc1Cl)SC(NNCCO)=NS2(=O)=O | > 100 µM (inactive) | > 100 µM (inactive) | > 100 µM (inactive) | > 100 µM (inactive) | 97.7 µM (inactive) | > 100 µM (inactive) | > 100 µM (inactive) | > 100 µM (inactive) | > 100 µM (inactive) | > 100 µM (inactive) | > 100 µM (inactive) |  | > 100 µM (inactive) | > 100 µM | > 100 µM (inactive) | > 100 µM (inactive) | > 100 µM (inactive) | > 100 µM (inactive) |  | 
16 | COCc1cc2c(cc1/C=C/[N+](=O)[O-])OCO2 |  | 23 µM (inactive) | 17.1 µM (inactive) | 22.8 µM (inactive) | 17.9 µM (inactive) | 16.9 µM (inactive) | 53.3 µM (inactive) | 19.8 µM (inactive) | 16.7 µM (inactive) | 27.4 µM (inactive) | 17.7 µM (inactive) | 18.5 µM (inactive) | 21.6 µM (inactive) | 19.7 µM | 29.7 µM (inactive) | 17.7 µM (inactive) | 18.8 µM (inactive) | 18.2 µM (inactive) | 17 µM (inactive) | 19.2 µM (inactive)
